Assay results reported in ChEMBL document CHEMBL1151757, “Synthesis, radiosynthesis, and biological evaluation of fluorine-18-labeled 2beta-carbo(fluoroalkoxy)-3beta-(3'-((Z)-2-haloethenyl)phenyl)nortropanes: candidate radioligands for in vivo imaging of the serotonin transporter with positron emission tomography” (J Med Chem, 2008).

What was measured:
[1] = Ratio of drug uptake in pons to cerebellum in anesthetized cynomolgus monkey after 95 mins postinjection; assay type: ADME, organism-based, Macaca fascicularis; conditions: in vivo
[2] = Ratio of drug uptake in pons to cerebellum in anesthetized cynomolgus monkey after 125 mins postinjection; assay type: ADME, organism-based, Macaca fascicularis; conditions: in vivo
[3] = Ratio of drug uptake in pons to cerebellum in anesthetized cynomolgus monkey after 225 mins postinjection; assay type: ADME, organism-based, Macaca fascicularis; conditions: in vivo, 3.75 h
[4] = Ratio of drug uptake in medulla to cerebellum in anesthetized cynomolgus monkey after 9.5 mins postinjection; assay type: ADME, organism-based, Macaca fascicularis; conditions: in vivo
[5] = Ratio of drug uptake in medulla to cerebellum in anesthetized cynomolgus monkey after 12.5 mins postinjection; assay type: ADME, organism-based, Macaca fascicularis; conditions: in vivo
[6] = Ratio of drug uptake in medulla to cerebellum in anesthetized cynomolgus monkey after 35 mins postinjection; assay type: ADME, organism-based, Macaca fascicularis; conditions: in vivo
[7] = Ratio of drug uptake in medulla to cerebellum in anesthetized cynomolgus monkey after 195 mins postinjection; assay type: ADME, organism-based, Macaca fascicularis; conditions: in vivo, 3.25 h
[8] = Drug uptake in anesthetized cynomolgus monkey brain occipital lobe after 6.5 mins postinjection; assay type: ADME, organism-based, Macaca fascicularis; set-up: unit not given here; conditions: in vivo
[9] = Drug uptake in anesthetized cynomolgus monkey brain occipital lobe after 9.5 mins postinjection; assay type: ADME, organism-based, Macaca fascicularis; conditions: in vivo
[10] = Drug uptake in anesthetized cynomolgus monkey brain occipital lobe after 125 mins postinjection; assay type: ADME, organism-based, Macaca fascicularis; conditions: in vivo
[11] = Drug uptake in anesthetized cynomolgus monkey brain frontal lobe after 1.5 mins postinjection; assay type: ADME, organism-based, Macaca fascicularis; conditions: in vivo, 0.025 h
[12] = Drug uptake in anesthetized cynomolgus monkey brain frontal lobe after 115 mins postinjection; assay type: ADME, organism-based, Macaca fascicularis; conditions: in vivo
[13] = Drug uptake in anesthetized cynomolgus monkey brain frontal lobe after 225 mins postinjection; assay type: ADME, organism-based, Macaca fascicularis; conditions: in vivo, 3.75 h
[14] = Ratio of drug uptake in pons to cerebellum in anesthetized cynomolgus monkey after 6.5 mins postinjection; assay type: ADME, organism-based, Macaca fascicularis; conditions: in vivo
[15] = Ratio of drug uptake in occipital lobe to cerebellum in anesthetized cynomolgus monkey after 125 mins postinjection; assay type: ADME, organism-based, Macaca fascicularis; conditions: in vivo
Putamen [16] = experiment: Drug uptake in anesthetized cynomolgus monkey brain putamen after 145 mins postinjection; assay type: ADME, organism-based, Macaca fascicularis; conditions: in vivo
Putamen [17] = experiment: Drug uptake in anesthetized cynomolgus monkey brain putamen after 165 mins postinjection; assay type: ADME, organism-based, Macaca fascicularis; conditions: in vivo, 2.75 h
Putamen [18] = experiment: Drug uptake in anesthetized cynomolgus monkey brain putamen after 215 mins postinjection; assay type: ADME, organism-based, Macaca fascicularis; conditions: in vivo
[19] = Ratio of drug uptake in occipital lobe to cerebellum in anesthetized cynomolgus monkey after 185 mins postinjection; assay type: ADME, organism-based, Macaca fascicularis; conditions: in vivo
[20] = Ratio of drug uptake in occipital lobe to cerebellum in anesthetized cynomolgus monkey after 195 mins postinjection; assay type: ADME, organism-based, Macaca fascicularis; conditions: in vivo, 3.25 h
[21] = Ratio of drug uptake in frontal lobe to cerebellum in anesthetized cynomolgus monkey after 3.5 mins postinjection; assay type: ADME, organism-based, Macaca fascicularis; conditions: in vivo
[22] = Ratio of drug uptake in frontal lobe to cerebellum in anesthetized cynomolgus monkey after 95 mins postinjection; assay type: ADME, organism-based, Macaca fascicularis; conditions: in vivo
Midbrain [23] = experiment: Drug uptake in anesthetized cynomolgus monkey brain midbrain after 175 mins postinjection; assay type: ADME, organism-based, Macaca fascicularis; conditions: in vivo
Midbrain [24] = experiment: Drug uptake in anesthetized cynomolgus monkey brain midbrain after 225 mins postinjection; assay type: ADME, organism-based, Macaca fascicularis; conditions: in vivo, 3.75 h
Pons [25] = experiment: Drug uptake in anesthetized cynomolgus monkey brain pons after 0.5 mins postinjection; assay type: ADME, organism-based, Macaca fascicularis; conditions: in vivo
Pons [26] = experiment: Drug uptake in anesthetized cynomolgus monkey brain pons after 12.5 mins postinjection; assay type: ADME, organism-based, Macaca fascicularis; conditions: in vivo
Pons [27] = experiment: Drug uptake in anesthetized cynomolgus monkey brain pons after 18.5 mins postinjection; assay type: ADME, organism-based, Macaca fascicularis; conditions: in vivo
Pons [28] = experiment: Drug uptake in anesthetized cynomolgus monkey brain pons after 55 mins postinjection; assay type: ADME, organism-based, Macaca fascicularis; conditions: in vivo
Caudate [29] = experiment: Drug uptake in anesthetized cynomolgus monkey brain caudate after 185 mins postinjection; assay type: ADME, organism-based, Macaca fascicularis, Caudate nucleus; conditions: in vivo
[30] = Ratio of drug uptake in caudate to cerebellum in anesthetized cynomolgus monkey after 12.5 mins postinjection; assay type: ADME, organism-based, Macaca fascicularis; conditions: in vivo
[31] = Ratio of drug uptake in caudate to cerebellum in anesthetized cynomolgus monkey after 65 mins postinjection; assay type: ADME, organism-based, Macaca fascicularis; conditions: in vivo
[32] = Ratio of drug uptake in caudate to cerebellum in anesthetized cynomolgus monkey after 135 mins postinjection; assay type: ADME, organism-based, Macaca fascicularis; conditions: in vivo, 2.25 h
Pons [33] = experiment: Drug uptake in anesthetized cynomolgus monkey brain pons after 125 mins postinjection; assay type: ADME, organism-based, Macaca fascicularis; conditions: in vivo
Pons [34] = experiment: Drug uptake in anesthetized cynomolgus monkey brain pons after 145 mins postinjection; assay type: ADME, organism-based, Macaca fascicularis; conditions: in vivo
Pons [35] = experiment: Drug uptake in anesthetized cynomolgus monkey brain pons after 215 mins postinjection; assay type: ADME, organism-based, Macaca fascicularis; conditions: in vivo
Medulla [36] = experiment: Drug uptake in anesthetized cynomolgus monkey brain medulla after 15.5 mins postinjection; assay type: ADME, organism-based, Macaca fascicularis; conditions: in vivo
Medulla [37] = experiment: Drug uptake in anesthetized cynomolgus monkey brain medulla after 18.5 mins postinjection; assay type: ADME, organism-based, Macaca fascicularis; conditions: in vivo
Medulla [38] = experiment: Drug uptake in anesthetized cynomolgus monkey brain medulla after 95 mins postinjection; assay type: ADME, organism-based, Macaca fascicularis; conditions: in vivo
[39] = Ratio of drug uptake in putamen to cerebellum in anesthetized cynomolgus monkey after 0.5 mins postinjection; assay type: ADME, organism-based, Macaca fascicularis; conditions: in vivo
[40] = Ratio of drug uptake in putamen to cerebellum in anesthetized cynomolgus monkey after 6.5 mins postinjection; assay type: ADME, organism-based, Macaca fascicularis; conditions: in vivo
[41] = Ratio of drug uptake in putamen to cerebellum in anesthetized cynomolgus monkey after 9.5 mins postinjection; assay type: ADME, organism-based, Macaca fascicularis; conditions: in vivo
Medulla [42] = experiment: Drug uptake in anesthetized cynomolgus monkey brain medulla after 135 mins postinjection; assay type: ADME, organism-based, Macaca fascicularis; conditions: in vivo, 2.25 h
Medulla [43] = experiment: Drug uptake in anesthetized cynomolgus monkey brain medulla after 145 mins postinjection; assay type: ADME, organism-based, Macaca fascicularis; conditions: in vivo
[44] = Octanol-water partition coefficient, log P at pH 7.4 by shake-flask method; assay type: physicochemical
Medulla [45] = experiment: Drug uptake in anesthetized cynomolgus monkey brain medulla after 215 mins postinjection; assay type: ADME, organism-based, Macaca fascicularis; conditions: in vivo
[46] = Drug uptake in anesthetized cynomolgus monkey brain cerebellum after 0.5 mins postinjection; assay type: ADME, organism-based, Macaca fascicularis; conditions: in vivo
[47] = Drug uptake in anesthetized cynomolgus monkey brain cerebellum after 2.5 mins postinjection; assay type: ADME, organism-based, Macaca fascicularis; conditions: in vivo
[48] = Drug uptake in anesthetized cynomolgus monkey brain cerebellum after 15.5 mins postinjection; assay type: ADME, organism-based, Macaca fascicularis; conditions: in vivo
[49] = Drug uptake in anesthetized cynomolgus monkey brain cerebellum after 115 mins postinjection; assay type: ADME, organism-based, Macaca fascicularis; conditions: in vivo
[50] = Drug uptake in anesthetized cynomolgus monkey brain cerebellum after 215 mins postinjection; assay type: ADME, organism-based, Macaca fascicularis; conditions: in vivo
[51] = Ratio of drug uptake in putamen to cerebellum in anesthetized cynomolgus monkey after 215 mins postinjection; assay type: ADME, organism-based, Macaca fascicularis; conditions: in vivo
[52] = Ratio of drug uptake in thalamus to cerebellum in anesthetized cynomolgus monkey after 95 mins postinjection; assay type: ADME, organism-based, Macaca fascicularis; conditions: in vivo
Caudate [53] = experiment: Drug uptake in anesthetized cynomolgus monkey brain caudate after 75 mins postinjection; assay type: ADME, organism-based, Macaca fascicularis, Caudate nucleus; conditions: in vivo, 1.25 h
Caudate [54] = experiment: Drug uptake in anesthetized cynomolgus monkey brain caudate after 105 mins postinjection; assay type: ADME, organism-based, Macaca fascicularis, Caudate nucleus; conditions: in vivo, 1.75 h
Caudate [55] = experiment: Drug uptake in anesthetized cynomolgus monkey brain caudate after 215 mins postinjection; assay type: ADME, organism-based, Macaca fascicularis, Caudate nucleus; conditions: in vivo
Thalamus = experiment: Drug uptake in anesthetized cynomolgus monkey brain thalamus after 22.5 mins postinjection; assay type: ADME, organism-based, Macaca fascicularis; set-up: unit not given here; conditions: in vivo, 0.375 h
Putamen [56] = experiment: Drug uptake in anesthetized cynomolgus monkey brain putamen after 18.5 mins postinjection; assay type: ADME, organism-based, Macaca fascicularis; set-up: unit not given here; conditions: in vivo
Putamen [57] = experiment: Drug uptake in anesthetized cynomolgus monkey brain putamen after 55 mins postinjection; assay type: ADME, organism-based, Macaca fascicularis; set-up: unit not given here; conditions: in vivo
Midbrain [58] = experiment: Drug uptake in anesthetized cynomolgus monkey brain midbrain after 4.5 mins postinjection; assay type: ADME, organism-based, Macaca fascicularis; set-up: unit not given here; conditions: in vivo, 0.075 h
Midbrain [59] = experiment: Drug uptake in anesthetized cynomolgus monkey brain midbrain after 18.5 mins postinjection; assay type: ADME, organism-based, Macaca fascicularis; set-up: unit not given here; conditions: in vivo
Midbrain [60] = experiment: Drug uptake in anesthetized cynomolgus monkey brain midbrain after 75 mins postinjection; assay type: ADME, organism-based, Macaca fascicularis; set-up: unit not given here; conditions: in vivo, 1.25 h
[61] = Ratio of drug uptake in midbrain to cerebellum in anesthetized cynomolgus monkey after 9.5 mins postinjection; assay type: ADME, organism-based, Macaca fascicularis; conditions: in vivo
[62] = Ratio of drug uptake in midbrain to cerebellum in anesthetized cynomolgus monkey after 18.5 mins postinjection; assay type: ADME, organism-based, Macaca fascicularis; conditions: in vivo
[63] = Ratio of drug uptake in midbrain to cerebellum in anesthetized cynomolgus monkey after 27.5 mins postinjection; assay type: ADME, organism-based, Macaca fascicularis; conditions: in vivo
[64] = Ratio of drug uptake in midbrain to cerebellum in anesthetized cynomolgus monkey after 135 mins postinjection; assay type: ADME, organism-based, Macaca fascicularis; conditions: in vivo, 2.25 h

O=C(OCC[18F])C1C2CCC(CC1c1cccc(/C=C\Br)c1)N2 (stereo not given)
Ratio [1]: 1.4 | Ratio [2]: 1.6 | Ratio [3]: 1.7 | Ratio [4]: 1.2 | Ratio [5]: 1.2 | Ratio [6]: 1.3 | Ratio [7]: 1.9 | Drug uptake [8]: 2.17 | Drug uptake [9]: 2.66 | Drug uptake [10]: 3.07 | Drug uptake [11]: 0.04 | Drug uptake [12]: 2.69 | Drug uptake [13]: 1.88 | Ratio [14]: 1 | Ratio [15]: 1.1 | Drug uptake (Putamen [16]): 4.21 | Drug uptake (Putamen [17]): 3.92 | Drug uptake (Putamen [18]): 3.24 | Ratio [19]: 1.3 | Ratio [20]: 1.1 | Ratio [21]: 0.5 | Ratio [22]: 0.9 | Drug uptake (Midbrain [23]): 4.13 | Drug uptake (Midbrain [24]): 3.74 | Drug uptake (Pons [25]): 0.01 | Drug uptake (Pons [26]): 3.52 | Drug uptake (Pons [27]): 4.13 | Drug uptake (Pons [28]): 4.36 | Drug uptake (Caudate [29]): 3.28 | Ratio [30]: 0.8 | Ratio [31]: 1.2 | Ratio [32]: 1.5 | Drug uptake (Pons [33]): 4.27 | Drug uptake (Pons [34]): 4.16 | Drug uptake (Pons [35]): 3.22 | Drug uptake (Medulla [36]): 4.15 | Drug uptake (Medulla [37]): 4.39 | Drug uptake (Medulla [38]): 4.55 | Ratio [39]: 1.3 | Ratio [40]: 1.1 | Ratio [41]: 1.1 | Drug uptake (Medulla [42]): 4.21 | Drug uptake (Medulla [43]): 3.92 | logD [44]: 1.4 | Drug uptake (Medulla [45]): 3.04 | Drug uptake [46]: 0 | Drug uptake [47]: 0.42 | Drug uptake [48]: 3.57 | Drug uptake [49]: 2.78 | Drug uptake [50]: 1.78 | Ratio [51]: 1.8 | Ratio [52]: 1.4 | Drug uptake (Caudate [53]): 3.94 | Drug uptake (Caudate [54]): 4.01 | Drug uptake (Caudate [55]): 2.85 | Drug uptake (Thalamus): 3.43 | Drug uptake (Putamen [56]): 4.37 | Drug uptake (Putamen [57]): 5.05 | Drug uptake (Midbrain [58]): 1.76 | Drug uptake (Midbrain [59]): 4.16 | Drug uptake (Midbrain [60]): 4.96 | Ratio [61]: 1.1 | Ratio [62]: 1.2 | Ratio [63]: 1.2 | Ratio [64]: 1.9
